Non-standard residues stand in square brackets, D forms with d. Residues, ends and D or L forms follow the SMILES beside them. ξ: configuration not given here. *: point of attachment. Chg = N[CH](C(=O)O)C1CCCCC1; Nle = CCCC[CH](N)C(=O)O; Cbz = O=C(OCc1ccccc1)*; ξNle = CCCCC(N)C(=O)O; CHN2 = [N-]=[N+]=C*
What follows are compounds tested on Aβ formation in HGB 717/Swed cells (assay: Immunoblot assay for Aβ peptide (inhibition of Aβ formation)). Settings: concentration of 10 μM, overnight incubation, conditioned medium, relative to DMSO control.
Type: cell-based, human
Excerpt: Human glioblastoma cells (ATCC Accession No. HTB16) were stably transfected with a DNA expression vector encoding a 695 amino acid isoform variant of the amyloid precursor protein (APP) containing the familial Swedish double mutations at codons 670 and 671 (K to N and M to L, respectively; see Mullan et al. (1992) Nature Genet. 1:345-347) and an additional mutation at codon 717 (V to F; see Murrell et al. (1991) Science 254:97-99) to produce cells designated HGB 717/Swed. High levels of Aβ are detectable in the conditioned medium isolated from HGb 717/Swed cultured cells. The medium also contains larger secreted fragments, α-sAPP695, which are alternatively processed APP fragments whose generation precludes Aβ formation.
HGB 717/Swed cells were grown at 37° C. under a 5% carbon dioxide atmosphere in Dulbecco's modified eagle medium (DMEM; Gibco) supplemented with 10% heat-inactivated fetal calf serum, 0.45% glucose, 2 mM L-glutamine, 100 units/ml penicillin, and 100 μg/ml streptomycin sulfate (Gemini Bioproducts). Approximately 1×10^6 cells were incubated overnight in 5 ml of DMEM containing varying μM final concentrations of desired test compounds or a DMSO control. Conditioned medium was collected, and unwanted cells and debris were removed by sedimentation at 3,000 rpm at 4° C.
Aβ peptides were isolated from the medium by immunoaffinity purification using an Aβ-specific antibody. To reduce the interaction of non-specific binding of unrelated proteins, such as serum proteins, to the antibody, the medium was pre-treated with rabbit antisera and Protein A Sepharose (Pharmacia) for 4 hours at 4° C. The sepharose-bound material was removed by centrifugation at 3,000 rpm at 4° C. for 10 min, and Aβ peptides were immunoaffinity purified from the clarified medium by incubation overnight with an affinity purified polyclonal rabbit antibody (referred to as 2939) prepared against a synthetic Aβ peptide corresponding to amino acids 1 to 28. Protein A-conjugated sepharose was added to immobilize the Aβ-antibody complexes, and the resin was pelleted by centrifugation at 3,000 rpm at 4° C. for 10 min. The Aβ -antibody complexes were eluted from the matrix by denaturing the complex by boiling in the presence of SDS.
Equal portions of each sample were loaded on 16% Tricine gels (Novex), and subjected to electrophoresis. Resolved proteins were transferred from the gel to Hybond nitrocellulose (Amersham, Arlington Heights, Ill.) by electroblotting, and incubated with the commercially available monoclonal antibody 6E10 (obtained from Drs. Kim and Wisniewski, Institute for Basic Research, New York, see, published International PCT application WO 90/12871), which specifically recognizes Aβ residues 1 to 17. Specifically bound antibody was detected using a biotinylated goat anti-mouse IgG secondary antibody (Sigma), followed by the addition of streptavidin conjugated to horseradish preoxidase (Amersham, Arlington Heights, Ill.), and documented by luminescent detection (Amersham). Levels of Aβ peptides were determined by laser densitometry of visualized films. A positive result in the assay is a decrease in the formation of the 4-kDa Aβ peptides relative to the DMSO control.
C=C(C)CC(C=O)NC(=O)[C@H](Cc1ccccc1)NC(=O)[C@H](CC(C)C)NC(=O)OCc1ccccc1 (mixture of isomers) [Cbz--L--F--Lene--(H), (2SR)-N-Cbz-L-Leu-L-Phe-N-[2-(4-methyl-4-pentenal)]amide] was tested, and the “% INHIBITION OF Aβ” value was 69%.
CC(=O)N[C@@H](CC(C)C)C(=O)N[C@@H](CC(C)C)C(=O)NC(C=O)CC1CCCCC1 (mixture of isomers) [Ac--L--L--Cha--(H), N-Ac-L-Leu-L-Leu-DL-cyclohexylalaninal] was tested, and the “% INHIBITION OF Aβ” value was 46%.
In the case of C=C(C)CC(C=O)NC(=O)[C@H](CC(C)C)NC(=O)[C@H](CC(C)C)NC(=O)OCc1ccccc1 (mixture of isomers) [Cbz--L--L--Lene--(H), (2SR)-N-Cbz-L-Leu-L-Leu N-[2-(4-methyl-4-pentenal)]amide], the “% INHIBITION OF Aβ” value is reported as 95%.

Same assay, conditions: concentration of 40 μM, overnight incubation, conditioned medium, relative to DMSO control
“N-Cbz-L-Leu-L-Leu-DL-(methyl)norleucinal [Cbz--L--L--[CH3]--Nl--(H)]” was tested, and the “% INHIBITION OF Aβ” value was 97%.
With CCCCC(C=O)NC(=O)C(CC(C)C)NC(=O)C1CCCN1C(=O)OCc1ccccc1 [Cbz--P--L--Nl--(H), N-Cbz-L-Pro-L-Leu-L-norleucinal] (Cbz-Pro-Leu-[Nle]-aldehyde; configuration not given here) the “% INHIBITION OF Aβ” value was 80%.
In the case of C=C(C)CC(C=O)NC(=O)[C@H](CC(C)C)NC(=O)[C@H](CC(C)C)OCc1ccccc1 (mixture of isomers) [2S--benzoxyvaleric--L--Lene--(H), (2SR)-N-[(2S)-2-benzoxy-4-methylpentanoyl]-L-Leu N-[2-(4-methyl-4-pentenal)]amide], the “% INHIBITION OF Aβ” value is reported as 85%.
CCCCC(C=O)NC(=O)[C@H](CC(C)C)N(C)C(=O)[C@H](CC(C)C)NC(=O)OCc1ccccc1 (mixture of isomers) [Cbz--L--[CH3]--L--Nl--(H), N-Cbz-L-Leu-L-(methyl)Leu-DL-norleucinal] was tested, and the “% INHIBITION OF Aβ” value was 77%.
In the case of CC(C)C[C@H](NC(=O)OCc1ccccc1)C(=O)N[C@@H](Cc1ccccc1)C(=O)NC(C=O)CC1CCCCC1 (mixture of isomers) [Cbz--L--F--Cha--(H), (2SR)-N-Cbz-L-Leu-L-Phe-DL-cyclohexylalaninal], the “% INHIBITION OF Aβ” value is reported as 100%.

Same assay, conditions: concentration of 50 μM, overnight incubation, conditioned medium, relative to DMSO control
For CCCCC(C=O)NC(=O)[C@H](CC(C)C)NC(=O)[C@H](CC(C)C)NC(=O)OCC1c2ccccc2-c2ccccc21 (mixture of isomers) [Fmoc--L--L--Nl--(H), N-Fmoc-L-Leu-L-Leu-DL-norleucinal], the “% INHIBITION OF Aβ” value was 89%.

Same assay, conditions: concentration of 75 μM, overnight incubation, conditioned medium, relative to DMSO control
For CCCCC(NC(=O)[C@H](CC(C)C)NC(=O)[C@H](CC(C)C)NC(C)=O)C(=O)C(F)(F)F (mixture of isomers) [Ac--L--L--Nl--(TFMK), (3SR)-N-Ac-L-Leu-L-Leu N-[3-(1,1,1-trifluoro-2-oxo-heptyl)]amide], the “% INHIBITION OF Aβ” value was 50%.
In the case of CC(=O)NC(CC(C)C)C(=O)NC(CC(C)C)C(=O)NC(C=O)C1CCCCC1 [Ac--L--L--Chg--(H)] (Ac-Leu-Leu-[Chg]-aldehyde; configuration not given here), the “% INHIBITION OF Aβ” value is reported as 99%.
With CCCCC(C#N)NC(=O)[C@H](CC(C)C)NC(=O)[C@H](CC(C)C)NC(C)=O (stereo partly drawn) [Ac--L--L--Nl--(CN), (2S)-N-Ac-L-Leu-L-Leu N-[2-(hexanenitrile)]amide] the “% INHIBITION OF Aβ” value was 94%.
CCCCC(NC(=O)[C@H](CC(C)C)NC(=O)[C@H](CC(C)C)NC(C)=O)C(=O)C=[N+]=[N-] (stereo partly drawn) [Ac--L--L--Nl--(DM), N-Ac-L-Leu-L-Leu-L-Nle-COCHN2] (Ac-Leu-Leu-[ξNle]-CHN2) was tested, and the “% INHIBITION OF Aβ” value was 87%.
In the case of CC=CCC(C=O)NC(=O)[C@H](CC(C)C)NC(=O)[C@H](CC(C)C)NC(C)=O (mixture of isomers) [Ac--L--L--Nlene--(H), (2SR)-N-Ac-L-Leu-L-Leu N [2-(trans-4-hexenal)]amide], the “% INHIBITION OF Aβ” value is reported as 96%.
